This is an account of results in PubChem BioAssay AID179 (DTP/NCI, 2004).

For the experiment, the system named is CEM cells HIV-1 protection, formazan growth assay. In words: NCI AIDS Antiviral Assay. The note with it: for IC50: measured here: growth of uninfected CEM cells. Summed up: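 CEM (human) cells, HIV-1 infected vs uninfected, 5-point dosing, formazan growth read-out. Retest threshold 50% protection.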

Activity calls are given as the source filed them.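 How the source made its calls: active means compounds giving half or more protection of infected cells from virus-caused growth loss, again on retest; inactive means the rest.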

For the molecule `NC(=O)C1N=NSC1NC(=O)c1ccc([N+](=O)[O-])cc1` (stereo not given), the EC50 (in general, the midpoint of the concentration-response curve) is more than 200 µM and the IC50 (in general, the concentration that gives 50% inhibition) worked out at 26.9 µM.

As for `S=c1[nH]nc(-c2ccccc2)n1/N=C\c1ccc(-c2ccc(Cl)cc2)o1`, the EC50 was more than 5.25 µM and the IC50 is more than 5.25 µM.

For the molecule `O=S(CC1(O)CCCCC1)c1ccccc1` (stereo not given), the result was inactive.

Take `CCC12C=CCN3CCC4(c5cc(C6(C(=O)OC)CCCCCc7c6[nH]c6ccccc76)c(OC)cc5N(C)C4C(O)(C(=O)OC)C1OC(C)=O)C32` (stereo not given): the EC50 is more than 25.1 µM and the IC50 turned out to be 4.37 µM.

On to `Cc1ccc(Cl)c(NC(=O)C(=O)C(C(=O)c2ccncc2)C2OC(=O)c3ccccc32)c1` (stereo not given), for which the EC50 was more than 562 µM and the IC50 came out at 166 µM.

With `CC(=O)OC1C(COS(=O)(=O)O)OC(O[C@H]2CC[C@@]3(C)C(=CC[C@@H]4C3CC[C@@]3(C)C4CC[C@@H]3C(C)=O)C2)C(OC(C)=O)C1OC(C)=O` (stereo not given in full), the EC50 is more than 31.6 µM and the IC50 was more than 31.6 µM.

For `[Se]=P(c1ccccc1)(c1ccccc1)c1ccc(C(c2ccccc2)=P(c2ccccc2)(c2ccccc2)c2ccccc2)cc1`, the EC50 was more than 10 µM and the half-maximal inhibitory concentration (IC50) was 1 µM.

Take `COC1=C(c2c[nH]c3ccc(CC=C(C)C)cc23)C(=O)C(OC)=C(c2c[nH]c3ccc(CC=C(C)C)cc23)C1=O`: the EC50 is more than 38.9 µM and the IC50 is 2.24 µM.

As to `O=C(NCc1ccncc1)C1COc2cc(-c3cc(=O)c4ccccc4o3)ccc2O1` (stereo not given), the result was inactive.

Regarding `CC(C)N(O)C(=N)c1ccccc1`, the result was inactive.

For `O=C1NC(=O)C(=Nc2cccc3c(=O)[nH][nH]c(=O)c23)C(c2nc3ccccc3s2)C1=O` (stereo not given), the result was inactive.

`COC(=O)CNCC1OC2OC(C)(C)OC2C1N=[N+]=[N-]` (stereo not given): the EC50 was more than 200 µM and the IC50 is more than 200 µM.

As for `O=C(O)CC[C@]1(C(=O)O)NC(C(=O)O)Cc2[nH]cnc21` (stereo not given in full), the EC50 was more than 891 µM and the 50% inhibitory concentration (IC50) is more than 891 µM.

Take `CCOC(=O)/C=C\n1c(=O)cc(C)c2ccccc21`: the EC50 is more than 200 µM and the IC50 is more than 200 µM.

In the case of `OCC12C3C4C1C1C2C3C41CO` (stereo not given), the EC50 was more than 1510 µM and the IC50 was more than 1510 µM.

For the molecule `COc1cc(SSc2cc(OC)c(OC)cc2C(=O)N2CSC[C@H]2C(=O)O)c(C(=O)N2CSC[C@@H]2C(=O)O)cc1OC`, the EC50 was more than 200 µM and the IC50 was more than 200 µM.

For `COc1ccc(N2C(=O)/C(=C/c3ccc(N(CCC#N)CCC#N)cc3C)N=C2c2cc([N+](=O)[O-])ccc2Cl)cc1`, the EC50 was more than 12.6 µM and the IC50 was 3.02 µM.

Take `CNCCCCN(C)/[N+]([O-])=N\O`: the EC50 is more than 8910 µM and the IC50 is 4070 µM.

`Cc1cc(C)c(C#N)c(SC(=S)NC(=O)c2ccccc2)n1`: the EC50 is 158 µM and the IC50 was more than 200 µM.

Regarding `C=C(Br)C[N+](CC)(CC)CC`, the EC50 is more than 200 µM and the IC50 was more than 200 µM.

For the molecule `Oc1cc(O)cc(/C=C/c2ccc(O)c(O)c2)c1`, the outcome was inactive.

For `CC1=C2c3ccccc3N(S(=O)(=O)c3ccccc3)[C@H]2[C@H](C(=O)N2C3CC4CC[C@@]3(CS2(=O)=O)C4(C)C)CC1` (stereo not given in full), the EC50 is 5.25 µM and the IC50 was determined as 18.6 µM.

Turning to `O=[N+]([O-])c1cccc(C2=NC(=S)NC(c3cc(Cl)ccc3O)C2)c1` (stereo not given), the EC50 is more than 200 µM and the IC50 is 141 µM.

`CC1(C)C2CCC(=O)C1C(OCc1ccccc1)C2` (stereo not given): the EC50 is more than 200 µM and the IC50 worked out at 95.5 µM.

Turning to `Cc1nnc(N2C(=O)C(=Cc3ccc(Cl)cc3)N=C2c2ccc(Cl)cc2)nc1/C=C\c1ccc(N(C)C)cc1`, the EC50 is 47.9 µM and the IC50 is 110 µM.

Turning to `CC1=C(C(=O)Nc2c(C)cccc2C)C(c2ccccc2Cl)C(C(=O)Nc2c(C)cccc2C)=C(C)N1`, the EC50 is more than 355 µM and the IC50 was determined as 324 µM.

As to `COc1cc(C#N)c(NC(=S)N2CCN(C(=O)c3ccco3)CC2)cc1OC`, the EC50 was more than 200 µM and the IC50 is 120 µM.

Turning to `CC(c1ccc(Br)cc1)C(C(=O)O)C(=O)O` (stereo not given), the outcome was inactive.

In the case of `CCOC(=O)N1CCN(c2ccc3ccc(N)nc3n2)CC1`, the EC50 was more than 200 µM and the 50% inhibitory concentration (IC50) was determined as 148 µM.

For the molecule `OC[C@H]1N[C@H](CO)[C@@H](O)[C@H]1O`, the EC50 is more than 200 µM and the IC50 turned out to be 148 µM.

`NCCCC[C@@H](NC(=O)[C@H](CS)NC(=O)[C@@H](N)Cc1cnc[nH]1)C(=O)N[C@H](Cc1ccccc1)C(=O)N[C@H](Cc1c[nH]c2ccccc12)C(=O)N[C@@H](Cc1c[nH]c2ccccc12)C(N)=O`: the EC50 is more than 200 µM and the concentration for half-maximal inhibition (IC50) is more than 200 µM.

As for `CCN(CC)CC(O)CN(CC(=O)Nc1c(C)cccc1C)CC(C)C` (stereo not given), the EC50 was more than 200 µM and the half-inhibitory concentration (IC50) was more than 200 µM.

As to `O=C1Cc2c(-c3ccccc3)cc(-c3cccc(Cl)c3)nc2-c2ccccc2N1`, the outcome was inactive.

For `CC1(C)CC(=O)C(C(=O)C(=O)NC2=C(Cl)C(=O)c3ccccc3C2=O)C(=O)C1`, the EC50 was more than 17.8 µM.

Consider `CN1C/C(=C\C=C\c2ccccc2)C(=O)/C(=C/C=C/c2ccccc2)C1`, for which the EC50 was more than 7.24 µM and the half-maximal inhibitory concentration (IC50) is more than 7.24 µM.

Consider `Cc1ccccc1NC(=S)Nc1ccccn1`, for which the EC50 was more than 200 µM and the IC50 was 95.5 µM.

In the case of `Cc1nc2ccc(Cl)cc2c(Cl)c1CCCl`, the EC50 was more than 200 µM and the half-maximal inhibitory concentration (IC50) came to 10.7 µM.

On to `CC1(C)OCC2OC3(c4nc(C#N)c(N)o4)OC(C)(C)OC3C2O1` (stereo not given), for which the EC50 is more than 50.1 µM and the IC50 was more than 50.1 µM.

Regarding `O=[N+]([O-])C1=C(c2ccccc2)SC([N+](=O)[O-])=C(c2ccccc2)S1`, the EC50 was more than 200 µM and the half-inhibitory concentration (IC50) is 14.8 µM.

For the molecule `CS(=O)(=O)OCCC(=O)N1CCN(C(=O)CCOS(C)(=O)=O)CC1`, the EC50 was more than 200 µM and the concentration for half-maximal inhibition (IC50) stood at 35.5 µM.

Turning to `COc1cc(Cc2cc3c(c(C(=O)O)c2Br)OCO3)cc(OC)c1OC`, the EC50 was more than 200 µM and the IC50 is 44.7 µM.

For the molecule `COc1cc(C2C(Cl)C(=O)N2NC(=O)c2ccccc2O)cc(OC)c1OC` (stereo not given), the EC50 is more than 45.7 µM and the IC50 was 3.98 µM.

As for `C=C1[C@@H]2CCC(C)(C)[C@H]1CCC(=O)[C@@H]2C(=O)OC`, the EC50 is more than 269 µM and the 50% inhibitory concentration (IC50) turned out to be 251 µM.

Consider `CC(C)(C)c1cc(C(P(=O)(O)O)P(=O)(O)O)cc(C(C)(C)C)c1O`, for which the EC50 was more than 525 µM and the IC50 is 331 µM.

As to `Cc1ccc(Oc2ccc(C)cc2[N+](=O)[O-])cc1`, the outcome was inactive.

On to `CCOC(=O)N/N=C/C1=NN(C(=O)OCC)S(=O)C1C` (stereo not given), for which the EC50 is more than 200 µM and the half-inhibitory concentration (IC50) is more than 200 µM.

For the molecule `CCN(CC)c1ccc2cc(C(N)=S)c(=N)oc2c1`, the EC50 is more than 61.7 µM and the IC50 is 20.4 µM.

Consider `CCC12CCCN(Cc3ccccc3)C1c1c([nH]c3ccccc13)C(CO)C2` (stereo not given), for which the EC50 was more than 26.3 µM and the IC50 was more than 26.3 µM.

For `CC1C(NNC(N)=O)Oc2cc3c(cc2C1c1ccccc1O)OCO3` (stereo not given), the EC50 is more than 200 µM and the IC50 was found to be 32.4 µM.

For `O=C(Nc1cccc(C(F)(F)F)c1)c1cc(-c2ccccc2)nc(=S)[nH]1`, the EC50 was more than 661 µM and the IC50 is more than 661 µM.

In the case of `O=c1c(-c2ccc(O)cc2)coc2cc(OC3OC(CO)C(O)C(O)C3O)cc(O)c12` (stereo not given), the EC50 was more than 200 µM and the concentration for half-maximal inhibition (IC50) is more than 200 µM.

Take `COc1ccc2oc(C(=O)O)c3c2c1CCC3CCC(=O)O` (stereo not given): the result was inactive.

On to `O=C1NC(N/N=C\C(O)C(O)C(O)CO)=N/C1=C/c1ccc(Cl)cc1` (stereo not given), for which the EC50 is more than 200 µM, the result was inactive and the half-inhibitory concentration (IC50) turned out to be 30.2 µM.

For `CC1=CN(c2ccccc2)S2=C1c1sc3c(c1N2c1ccc(Br)cc1)CCCC3` (stereo not given), the EC50 is more than 200 µM and the half-maximal inhibitory concentration (IC50) was more than 200 µM.

In the case of `Nc1cccc2c1C1=NNC(=O)CC1C2` (stereo not given), the result was inactive.

Turning to `COC(=O)CCC(=O)C(CC(=O)OC)C(=O)CCC(=O)NCCc1ccccc1` (stereo not given), the EC50 was more than 27.5 µM and the half-maximal inhibitory concentration (IC50) is more than 27.5 µM.

Consider `C/C(CCN(C)C)=N/O`, for which the result was inactive.

On to `COc1ccc(N=NC(=O)NC(CC(C)C)C(=O)NC(C)C(=O)O)cc1` (stereo not given), for which the EC50 is more than 200 µM and the IC50 came out at 2.82 µM.

On to `Nc1ncnc2c1ncn2C1OC(CO)C(O)C1O` (stereo not given), for which the outcome was inactive.

As for `Cc1ccc(S(=O)(=O)c2ccc([N+](=O)[O-])cc2)cc1`, the result was inactive.

Take `CCOc1ccc(N=NC2C(=O)N(C(=O)CC(=O)Nc3ccccc3OC)N=C2C)cc1` (stereo not given): the EC50 was more than 200 µM and the 50% inhibitory concentration (IC50) stood at 7.24 µM.

For the molecule `NNC(=S)N/N=C(\CC1OC(=O)c2ccccc21)c1ccccc1O` (stereo not given), the EC50 was more than 363 µM and the 50% inhibitory concentration (IC50) stood at 209 µM.

As to `O=C1N(Cc2ccccc2)C2CSCC2N1Cc1ccccc1` (stereo not given), the EC50 was more than 200 µM and the IC50 stood at 87.1 µM.

`OC(c1ccoc1)c1cc2ccccc2s1` (stereo not given): the EC50 is more than 200 µM and the IC50 is 44.7 µM.

`COc1ccc(Cl)[c]([Bi]([c]2cc(OC)ccc2Cl)[c]2cc(OC)ccc2Cl)c1`: the EC50 is more than 39.8 µM and the IC50 was more than 39.8 µM.

In the case of `CN(c1ccc(/C=C/c2ccccc2)cc1)P1(=O)NCCCO1` (stereo not given), the EC50 was more than 41.7 µM and the half-inhibitory concentration (IC50) was determined as 28.2 µM.

With `CC1CCC2(CC1)NN=c1s/c(=C\c3ccc(O)cc3)c(=O)n1N2` (stereo not given), the outcome was inactive.

`CC1(C)C=CC(C)(C)c2c(NS(=O)(=O)c3ccccc3)ccc(NS(=O)(=O)c3ccccc3)c21`: the EC50 is more than 200 µM and the IC50 came to 63.1 µM.

Turning to `O=C1NC(=O)C2(CC2)N1`, the EC50 is more than 200 µM and the IC50 was more than 200 µM.

Take `O=[S@](c1ccccc1)[C@@H]1CC2C3CC4C2C4C31` (stereo not given in full): the EC50 is more than 537 µM and the half-maximal inhibitory concentration (IC50) was 324 µM.

Take `O=P1(c2ccccc2)C(c2ccccc2)CCC1c1ccccc1` (stereo not given): the EC50 was more than 200 µM and the half-inhibitory concentration (IC50) came out at 85.1 µM.

As for `c1ccc2sc(SSc3nc4ccccc4s3)nc2c1`, the EC50 was more than 200 µM and the half-maximal inhibitory concentration (IC50) is more than 200 µM.
